Laboratory results as given in publication PMC11988775, “Glycyl-tRNA Synthetase as a Target for Antiviral Drug Screening Against Influenza Virus” (International Journal of Molecular Sciences, 2025).
Like-named read-outs stand apart in the source and are kept apart here.

Columns and labels:
GlyRS [1] = molecular target: T1, GlyRS (Homo sapiens, UniProt P41250); test: Fluorescence-based thermal shift assay (TSA); format: binding; conditions: shift between Tm of GlyRS with and without compound
T1 construct: made in house; host or cells: E. coli BL21(DE3)
T1 sequence (P41250 37-739): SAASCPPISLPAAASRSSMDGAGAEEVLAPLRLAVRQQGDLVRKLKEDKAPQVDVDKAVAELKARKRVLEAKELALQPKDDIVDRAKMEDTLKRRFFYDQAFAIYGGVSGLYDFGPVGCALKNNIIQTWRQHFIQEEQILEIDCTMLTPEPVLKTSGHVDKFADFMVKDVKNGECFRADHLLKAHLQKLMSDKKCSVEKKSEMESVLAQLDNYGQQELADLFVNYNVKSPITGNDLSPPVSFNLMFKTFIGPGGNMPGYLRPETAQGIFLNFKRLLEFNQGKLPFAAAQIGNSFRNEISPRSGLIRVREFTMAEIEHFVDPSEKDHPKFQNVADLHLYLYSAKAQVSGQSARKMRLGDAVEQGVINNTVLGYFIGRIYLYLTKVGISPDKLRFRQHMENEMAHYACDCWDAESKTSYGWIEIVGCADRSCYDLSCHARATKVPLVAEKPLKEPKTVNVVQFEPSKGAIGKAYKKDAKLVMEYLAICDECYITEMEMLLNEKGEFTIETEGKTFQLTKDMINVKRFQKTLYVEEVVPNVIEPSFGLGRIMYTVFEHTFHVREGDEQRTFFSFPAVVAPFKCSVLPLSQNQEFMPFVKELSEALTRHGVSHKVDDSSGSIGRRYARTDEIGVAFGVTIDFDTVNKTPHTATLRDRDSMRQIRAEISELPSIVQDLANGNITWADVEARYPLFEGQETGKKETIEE
Procedure: Thermal shift assays were conducted using a StepOnePlus 7 Flex Real-Time Cycler (Applied Biosystems, Waltham, MA, USA). The Protein Thermal Shift™ Kit dye from Thermo Fisher Scientific was employed to monitor the thermal stability of the protein by binding to its exposed hydrophobic regions. In each well of a 96-well Optical Reaction Plate (Applied Biosystems), a solution containing 14 μL of protein thermal shift buffer, 2 μL of diluted thermal shift dye (8×), 2 μL small molecule solution at 1 mM, and 2 μL of protein at 1 mg/mL was added. The 96-well polymerase chain reaction plates were then placed in the Life Technologies system and incubated at 25 °C for 10 min. Subsequently, the samples were gradually heated from 25 °C to 95 °C at a rate of 1 °C/min. During the thermal denaturation of the protein, the fluorescence signal of SYPRO orange at 490/530 nm excitation/emission wavelengths was recorded by the instrument at 30 s intervals. The fluorescence signal was continuously monitored and plotted against the temperature, with the midpoint of the protein unfolding transition defined as the melting temperature (Tm). To ensure accuracy, triplicate experiments were performed. The ΔTm represents the shift in Tm value between the GlyRS treated with compounds and the blank control.

GlyRS [2] = molecular target: T1, GlyRS; test: Bio-layer interferometry (BLI) binding assay; conditions: for Kdis / Kon: immobilized GlyRS
Procedure: Binding experiments on the GlyRS proteins with various molecules were conducted using an Octet R8 system (ForteBio, Fremont, CA, USA). Purified His-tagged GlyRS proteins (500 μg/mL) were captured using Ni-NTA biosensors (ForteBio, Fremont, CA, USA), resulting in a saturation response of 4–5 nm after 300 s. Subsequently, the biosensors were immersed in diluted molecules (0.625–20 μM in assay buffer) for 120 s to measure the association signal, followed by transfer into Octet buffer to measure the dissociation signal for 100 s. Reference wells containing buffer instead of the tested compounds were included to correct for baseline shifts. A parallel set of Ni-NTA sensors immersed only in buffer served as negative reference controls to correct for nonspecific binding of the compounds to the biosensor surface. The signals were analyzed by a double reference subtraction protocol to deduce nonspecific and background signals and signal drifts caused by biosensor variability. All assays were performed by a standard protocol in 96-well black plates with a total volume of 200 μL/well at 30 °C. The generated data were analyzed using the Octet® Analysis Studio 12.2.2.26 for correction and curve fitting.

GlyRS [3] = molecular target: T1, GlyRS; test: Enzyme inhibition assay (ATP consumption assay); format: biochemical; conditions: for IC50: ATP consumption assay, mean ± SD
Procedure: The ATP consumption assay was utilized to assess the enzymatic inhibitory activity of the compounds. The 30 μL reaction mixture consisted of 1 μM GlyRS, 25 μM ATP, 50 μM L-Glycine, 30 mM HEPES pH 7.5, 150 mM NaCl, 30 mM KCl, 40 mM MgCl2, and 0.1% bovine serum albumin (BSA), along with the corresponding concentrations of each compound. The reaction mixture was incubated at room temperature for 15 min. After incubation, 10 μL of the reaction reagent was transferred to a 384-well microplate, and the GlyRS enzyme activity was detected by adding 10 μL of the ATP Assay Kit (#S0026, Beyotime, Shanghai, China). Luminescence measurements were performed using a Synergy HTX multimode microplate Reader (BioTek Inc., Winooski, VT, USA). […]

in vitro = format: cell-based; conditions: human
Procedure: We then evaluated the antiviral effects of Lycobetaine and Scutellarein. To determine the optimal concentration of the small molecules, we used the CCK-8 assay to evaluate cell viability and estimate the CC50 value of the two drugs in A549 cells. In this experiment, the cells were exposed to varying concentrations of Lycobetaine and Scutellarein, and the CCK-8 reagent was added 24 h after drug treatment.

[4] = system: A/PuertoRico/8/34 (H1N1) (PR8 virus); format: cell-based, Influenza A virus
GlyRS [5] = molecular target: T1, GlyRS; test: Limited proteolysis analysis (trypsin, SDS-PAGE); conditions: trypsin at different concentrations, 1 h at 37 °C, versus unbound GlyRS
[6] = 1 μM GlyRS at 20 μM compounds, average of two independent experiments
[7] = BLI, immobilized His-tagged GlyRS, mean ± SD, three repeats, read-out: KD

Row | Structure (SMILES) | △Tm (GlyRS [1]) | Kd (GlyRS [2]) | Kdis (GlyRS [2]; BLI) | Kon (GlyRS [2]; BLI) | Relative Enzyme Activity (GlyRS [3]; [6]) | Kd (GlyRS [2]; [7]) | Kd (GlyRS [2]; BLI, mean ± SD, three repeats (Table 2), read-out: KD) | IC50 (GlyRS [3]) | CC50 at 24 h (in vitro) | viral infection rate / viral titer [4] | protein conformation change of GlyRS (distribution of proteolyzed fragments) (GlyRS [5]) | Relative Enzyme Activity (GlyRS [3]; Figure 5K, bars A-J correspond to the compounds of panels A-J)
1 | Cc1ccc(S(=O)(=O)NCl)cc1 [Chloramine-T] | −5.13 °C | 15.1 ± 1.8 µM | 78.19 ± 17.95 (1/s) × 10^−2 | 52.28 ± 13.31 (1/MS) × 10^3 | 86.9% |  |  |  |  |  |  | 
2 | Cc1c(OCC(F)(F)F)ccnc1C[S+]([O-])c1nc2ccccc2[nH]1 (centres unmarked) [Lansoprazole, reference compound] | −5.03 °C |  | 9.25 ± 3.64 (1/s) × 10^−2 | 7.23 ± 2.14 (1/MS) × 10^3 | 72.3% | 12.5 ± 1.63 µM |  |  |  |  |  | 
3 | C[C@@H]1C[C@H]2[C@@H]3CCC4=CC(=O)C=C[C@]4(C)[C@@]3(Cl)[C@@H](O)C[C@]2(C)[C@@]1(OC(=O)c1ccco1)C(=O)CCl [Mometasone furoate, reference compound] | −11.58 °C |  |  | 108.8 ± 67.42 (1/MS) × 10^3 | 91.2% | 1.82 ± 0.36 µM |  |  |  |  |  | 
4 | CC(C)c1cc2c(c(O)c1O)[C@@]1(C(=O)O)CCCC(C)(C)[C@@H]1CC2 [Carnosic acid] | −5.9 °C | 14.5 ± 0.19 µM | 1.12 ± 0.17 (1/s) × 10^−2 | 1.13 ± 0.26 (1/MS) × 10^3 | 75.4% |  |  |  |  |  |  | 
5 | CC(=O)N[C@@H](C)C(=O)O [N-Acetyl-L-alanine] | 5.96 °C |  | 560 ± 194 (1/s) × 10^−2 | 396.20 ± 85.48 (1/MS) × 10^3 | 88.1% | 24.9 ± 4.33 µM |  |  |  |  |  | 
6 | COC(=O)C1=C(C)NC(C)=C(C(=O)OCC(C)C)C1c1ccccc1[N+](=O)[O-] (centres unmarked) [Nisoldipine, reference compound] | −8.96 °C |  | 400 ± 94.49 (1/s) × 10^−2 | 86.16 ± 27.50 (1/MS) × 10^3 | 67.3% | 47.7 ± 7.18 µM |  |  |  |  |  | 
7 | O=c1cc(-c2ccc(O)cc2)oc2cc(O)c(O)c(O)c12 [Scutellarein] | −5.3 °C |  | 1.09 ± 0.11 (1/s) × 10^−2 | 3.96 ± 1.05 (1/MS) × 10^3 | 27.3% |  | 2.88 ± 0.83 µM | 2.22 ± 0.19 µM | 29.4 ± 0.76 µM | effectively reduced the viral infection rate | did not show significant differences compared to unbounded GlyRS | 
8 | Oc1c(I)cc(I)c2cccnc12 [Iodoquinol, reference compound] | −11.97 °C |  | 2.23 ± 0.49 (1/s) × 10^−2 | 3.10 ± 0.51 (1/MS) × 10^3 |  | 7.14 ± 0.41 µM |  |  |  |  |  | 72.0%
9 | COC[C@H]1C[C@@H](c2nc(-c3ccc4c(c3)COc3cc5c(ccc6nc([C@@H]7CC[C@H](C)N7C(=O)[C@@H](NC(=O)OC)C(C)C)[nH]c65)cc3-4)c[nH]2)N(C(=O)[C@H](NC(=O)OC)c2ccccc2)C1 [Velpatasvir, reference compound] | −5.4 °C |  | 18.46 ± 0.98 (1/s) × 10^−2 | 15.80 ± 0.71 (1/MS) × 10^3 | 78.5% | 11.7 ± 1.13 µM |  |  |  |  |  | 
10 | Oc1cc2c3c(c1)c1cc4c(cc1c[n+]3CC2)OCO4 [Lycobetaine] | −13.01 °C |  | 39.73 ± 11.18 (1/s) × 10^−2 |  | 8.0% | 43.5 ± 16.4 µM |  | 0.11 ± 0.05 µM | 16 ± 0.58 µM | effectively reduced the viral infection rate | alters the protein conformation of GlyRS | 
